One assay deals with T1, Cyclooxygenase-2 (Mus musculus, UniProt Q05769).
T1 construct: endogenous in cells; host or cells: thioglycollate-elicited peritoneal macrophages of male C57BL-6J mice
T1 sequence (Q05769 18-604): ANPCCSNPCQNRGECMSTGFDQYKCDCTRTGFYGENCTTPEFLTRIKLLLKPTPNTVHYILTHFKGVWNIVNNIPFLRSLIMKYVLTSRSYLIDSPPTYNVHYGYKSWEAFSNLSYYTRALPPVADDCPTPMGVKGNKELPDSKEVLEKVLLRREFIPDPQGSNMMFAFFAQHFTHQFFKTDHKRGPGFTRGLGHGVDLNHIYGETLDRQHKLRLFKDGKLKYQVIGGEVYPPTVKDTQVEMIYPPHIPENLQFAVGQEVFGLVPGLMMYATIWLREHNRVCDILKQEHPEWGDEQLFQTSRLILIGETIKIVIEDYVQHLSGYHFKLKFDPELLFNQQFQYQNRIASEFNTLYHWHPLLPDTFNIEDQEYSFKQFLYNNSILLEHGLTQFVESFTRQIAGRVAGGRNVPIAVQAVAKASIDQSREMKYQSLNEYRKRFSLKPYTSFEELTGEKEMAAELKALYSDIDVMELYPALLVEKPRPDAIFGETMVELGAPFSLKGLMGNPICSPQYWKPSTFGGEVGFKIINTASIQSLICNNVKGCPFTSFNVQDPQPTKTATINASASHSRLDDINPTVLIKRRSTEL
In words: COX-2 assay: LPS-stimulated PGE2 production in mouse peritoneal macrophages (RIA). In kind it is cell-based, mice. The note with it: for IC50: mouse peritoneal macrophages, LPS 1 mg/L 9 h, PGE2 by RIA; for COX-1/COX-2: ratio of IC50 COX-1 to IC50 COX-2. The method, then: Cell culture: Adherent macrophages were harvested from the peritoneal cells of male mice (C57BL-6J, Level 2, from Experiment Animal Center, Academy of Military Medical Science) 3 d after the injection (ip) of brewer thioglycollate medium (5 mL/100 g body weight). […] After settlement for 2˜3 h, non-adherent cells were washed by D-Hanks' balanced salt solution. […] Cell viability was examined by trypan blue dye exclusion. All incubation procedures were performed with 5% CO2 in humidified air at 37° C.
COX-2 assay: Macrophages were incubated with test compound at different concentrations or solvent (Me2SO) for 1 h and were stimulated with LPS 1 mg/L for 9 h. The amount of PGE2 in supernatants was measured by RIA. The inhibitory ratio was calculated using the same formula as in COX-1 assay section. Cs, Ct, Cc refer to PGE2 concentration in supernatants of LPS, test compound, and control groups, respectively.
(§1) [formula] Cs, Ct, Cc refer to 6-keto-PGF1[…] concentration in supernatants of calcimycin, test compound, and control groups, respectively.
(§2) Statistical analysis: Data were expressed as the mean±SD of more than three independent experiments. Dose-inhibitory effect curves were fit through “uphill dose response curves, variable slope” using Prism, GraphPad version3.00: […]

Assay [1] concerns rat carrageenan-induced foot pad edema. In words: Rat carrageenan-induced foot pad edema assay. In kind it is in vivo, rats. The note with it: 10 mg/kg oral. The method, then:
Male Sprgue-Dawley rats (190–220 g) were fasted with free access to water at least 16 h prior to experiments. The rats were dosed orally with a 1 ml suspension of test compound in vehicle (0.5% methyl cellulose and 0.025% Tween-20) or with vehicle alone. One hour later a subplantar injection of 0.1 ml of 1% solution of caarageenan in 0.9% strile saline was administered to the right hind foot pad. Paw volume was measured with a displacement plethysmometer 2, 3, and 4 h after caarageenan injection.

The target in a further assay is T2, Cyclooxygenase-1 (Mus musculus, UniProt P22437).
T2 construct: endogenous in cells; host or cells: thioglycollate-elicited peritoneal macrophages of male C57BL-6J mice
T2 sequence (P22437 27-602): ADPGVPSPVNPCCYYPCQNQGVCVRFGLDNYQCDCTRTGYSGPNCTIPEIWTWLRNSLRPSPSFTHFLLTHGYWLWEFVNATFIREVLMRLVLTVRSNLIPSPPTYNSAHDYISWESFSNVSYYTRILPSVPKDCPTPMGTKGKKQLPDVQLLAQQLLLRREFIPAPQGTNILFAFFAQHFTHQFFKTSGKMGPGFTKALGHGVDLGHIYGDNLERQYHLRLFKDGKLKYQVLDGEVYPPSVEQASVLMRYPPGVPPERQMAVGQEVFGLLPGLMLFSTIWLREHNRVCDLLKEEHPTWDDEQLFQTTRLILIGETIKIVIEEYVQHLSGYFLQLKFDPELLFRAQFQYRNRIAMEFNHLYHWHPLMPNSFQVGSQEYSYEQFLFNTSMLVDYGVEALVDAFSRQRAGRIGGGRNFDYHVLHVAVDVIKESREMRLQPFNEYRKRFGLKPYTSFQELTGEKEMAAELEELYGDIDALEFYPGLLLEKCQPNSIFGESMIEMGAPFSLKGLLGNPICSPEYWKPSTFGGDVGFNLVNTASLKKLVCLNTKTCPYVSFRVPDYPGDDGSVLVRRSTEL
In words: COX-1 assay: calcimycin-stimulated 6-keto-PGF1 production in mouse peritoneal macrophages (RIA). In kind it is cell-based, mice. The note with it: calcimycin 1 μmol/L 1 h, 6-keto-PGF1 by RIA. As for the experimental part:
Cell culture: Adherent macrophages were harvested from the peritoneal cells of male mice (C57BL-6J, Level 2, from Experiment Animal Center, Academy of Military Medical Science) 3 d after the injection (ip) of brewer thioglycollate medium (5 mL/100 g body weight). Shortly, peritoneal cells obtained from 3˜4 mice were mixed and seeded in 48 well cell culture cluster (Costar) at a cell density of 1×10^9 cell/L in RPMI-1640 supplemented with 5% (v/v) newborn calf serum, 100 ku/L penicillin and […] streptomycin. After settlement for 2˜3 h, non-adherent cells were washed by D-Hanks' balanced salt solution. Then macrophages were cultured in RPMI-1640 without serum. Almost all of adherent cells were macrophages as assessed by Giemsa staining. Cell viability was examined by trypan blue dye exclusion. All incubation procedures were performed with 5% CO2 in humidified air at 37° C.
COX-1: assay Macrophages were incubated with test compound at different concentrations or solvent (Me2SO) for 1 h and were stimulated with calcimycin 1 μmol·L^−1 for 1 h. The amount of 6-keto-PGF1[…] (a stable metabolite of PGI2) in supernatants was measured by RIA according to manufacturer's guide. The inhibitory ratio was calculated as
as §1, §2

The mark [2] stands for this setting: 3 h after carrageenan, read-out: inhibitory percentage of edema, 3 hr.
Setting [3] is: 4 h after carrageenan, read-out: inhibitory percentage of edema, 4 hr.

Like-named read-outs stand apart in the source and are kept apart here. Some results are limits rather than exact numbers.

Consider `CN1CC(c2ccc(S(C)(=O)=O)cc2)=C(c2ccc(F)cc2)C1=O` [Example 120, N-Methyl-3-(4-fluorophenyl)-4-(4-methylsulfonylphenyl)-2,5-dihydropyrrole-2-one], for which the 50% inhibitory concentration (IC50) on Cyclooxygenase-2 turned out to be 0.0138 µM; at Cyclooxygenase-1, 0.2 µM. Further, the COX-1/COX-2 on Cyclooxygenase-2 is on record as 14.5. Further, the inhibition at 10 mg/kg came out at 39.2% in assay [1] (setting [2]) and 26.2% in assay [1] (setting [3]).

In the case of `CCCN1CC(c2ccc(S(C)(=O)=O)cc2)=C(c2ccc(C)cc2)C1=O` [Example 122, N-Propyl-3-(4-methylphenyl)-4-(4-methylsulfonylphenyl)-2,5-dihydropyrrole-2-one], the concentration for half-maximal inhibition (IC50) against Cyclooxygenase-2 came out at 0.015 µM; on Cyclooxygenase-1, 0.0913 µM. In addition, the inhibition at 10 mg/kg in assay [1] (setting [2]) is 57.2%; in assay [1] (setting [3]), 59.3%.

As for `CCCN1CC(c2ccc(S(C)(=O)=O)cc2)=C(c2ccc(Cl)cc2)C1=O` [Example 124, N-Propyl-3-(4-chlorophenyl)-4-(4-methylsulfonylphenyl)-2,5-dihydropyrrole-2-one], the IC50 against Cyclooxygenase-2 is 0.0245 µM; on Cyclooxygenase-1, 0.00802 µM. Further, the inhibition at 10 mg/kg stood at 39.4% in assay [1] (setting [2]) and 32.7% in assay [1] (setting [3]).

As to `Cc1ccc(C2=C(c3ccc(S(C)(=O)=O)cc3)C(=O)N(C)C2)cc1` [Example 105, N-Methyl-3-(4-methylsulfonylphenyl)-4-(4-methylphenyl)-2,5-dihydropyrrole-2-one], the IC50 is 0.782 µM on Cyclooxygenase-2 and > 10 µM at Cyclooxygenase-1. In addition, the inhibition at 10 mg/kg is 39.2% in assay [1] (setting [2]) and 48.2% in assay [1] (setting [3]).

With `CCCN1CC(c2ccc(S(C)(=O)=O)cc2)=C(c2ccc(F)cc2)C1=O` [Example 123, N-Propyl-3-(4-fluorophenyl)-4-(4-methylsulfonylphenyl)-2,5-dihydropyrrole-2-one], the half-maximal inhibitory concentration (IC50) against Cyclooxygenase-2 turned out to be 0.0286 µM; on Cyclooxygenase-1, 0.502 µM. Also, the values for the inhibition at 10 mg/kg in assay [1] (setting [2]) and in assay [1] (setting [3]) were 49.6% and 50.3%, respectively.

In the case of `CCCN1CC(c2ccc(S(C)(=O)=O)cc2)=C(c2ccccc2)C1=O` [Example 115, N-Propyl-3-phenyl-4-(4-methylsulfonylphenyl)-2,5-dihydropyrrole-2-one], the half-inhibitory concentration (IC50) was found to be 0.0195 µM at Cyclooxygenase-2 and 0.149 µM on Cyclooxygenase-1. In addition, the COX-1/COX-2 on Cyclooxygenase-2 is 7.6. Moreover, the inhibition at 10 mg/kg in assay [1] (setting [2]) worked out at 22.8%; in assay [1] (setting [3]), 27.2%.

For `Cc1ccc(C2=C(c3ccc(S(C)(=O)=O)cc3)CN(C3CC3)C2=O)cc1` [Example 125, N-Cyclopropyl-3-(4-methylphenyl)-4-(4-methylsulfonylphenyl)-2,5-dihydropyrrole-2-one], the results for the IC50 at Cyclooxygenase-2 and at Cyclooxygenase-1 were 0.0948 µM and 0.236 µM, respectively. The COX-1/COX-2 on Cyclooxygenase-2 is on record as 2.5. Further, the values for the inhibition at 10 mg/kg in assay [1] (setting [2]) and in assay [1] (setting [3]) were 34.1% and 31.1%, respectively.

As for `CS(=O)(=O)c1ccc(C2=C(c3ccccc3)C(=O)OC2)cc1` [Rofecoxib, reference compound], the IC50 against Cyclooxygenase-2 was 0.00957 µM; on Cyclooxygenase-1, > 10 µM. The inhibition at 10 mg/kg in assay [1] (setting [2]) is 45.9%; in assay [1] (setting [3]), 50.2%.

Turning to `CN1CC(c2ccc(S(C)(=O)=O)cc2)=C(c2ccc(Br)cc2)C1=O` [Example 119, N-Methyl-3-(4-bromophenyl)-4-(4-methylsulfonylphenyl)-2,5-dihydropyrrole-2-one], the IC50 against Cyclooxygenase-2 was 0.0118 µM; at Cyclooxygenase-1 it was 0.0572 µM. For the same compound, at Cyclooxygenase-2, the COX-1/COX-2 was found to be 4.9. For the same compound, the inhibition at 10 mg/kg amounted to 48% in assay [1] (setting [2]) and 49.8% in assay [1] (setting [3]).

Regarding `CN1CC(c2ccc(S(C)(=O)=O)cc2)=C(c2ccc(Cl)cc2)C1=O` [Example 117, N-Methyl-3-(4-chlorophenyl)-4-(4-methylsulfonylphenyl)-2,5-dihydropyrrole-2-one], the values for the half-inhibitory concentration (IC50) on Cyclooxygenase-2 and on Cyclooxygenase-1 were 0.0242 µM and 0.159 µM, respectively. The COX-1/COX-2 at Cyclooxygenase-2 was 6.6. For the same compound, the inhibition at 10 mg/kg in assay [1] (setting [2]) came to 48.2%; in assay [1] (setting [3]), 59.3%.
